Numbered stars: 1 amine (or outer) side, 2 acyl side, 3 side chain; on linkers, the order of the positions; unused ones are H or OH. Square brackets hold non-standard residues; d marks the D form. Peptide text beside a SMILES is read from it. * marks the point of attachment. Sta = CC(C)C[C@H](N)[C@@H](O)CC(=O)O; AMC = Cc1cc(=O)oc2cc(N*)ccc12; Suc = O=C(CCC(=O)[*:2])[*:1]; Isovaleryl = CC(C)CC(=O)*; code Z = not defined here; Boc = CC(C)(C)OC(=O)*

Sequences and labels used below:
B1: 19 kDa protease: Aspergillus niger 19 kDa protease (SEQ ID NO: 5) expressed intracellularly in A. oryzae, pooled gel permeation fractions (protein)
chain: MSPIPSYSRPGRGQHFQDAYGFAEACIAGDRMEIAGQTGMSPTSTEVPPTLEEEVAQAFNNINEVILYTLEKAKPDLRASVKSGWDRVVKIRTYHVQLPQTREKIIGLMVENVKKWCPDHQPTWTMLGIEALPFEGQNLEIEVDVFLG
modifications: Aspergillus niger

The first assay deals with 19 kDa protease. As to the kind of experiment: Substrate specificity of the 19 kDa protease (fluorogenic MCA substrates). The assay is classed as biochemical, Aspergillus niger. To be noted: 0.04 mM substrate solution, phosphate buffer pH 6.7, 37° C., 30 min, fluorescence 360/460 nm; Suc-LLVY-MCA = 100%. The procedure:
(§1) Five synthetic substrates were purchased from Peptide Institute Co., Osaka. The substrates are Glt-AAF-MCA, Suc-LLVY-MCA, Boc-FSR-MCA, Suc(OMe)-AAPV-MCA, and Z-LLE-MCA. 25 μl of 0.04 mM substrates were preincubated at 37° C. for 5 min. 20 μl of protease sample were mixed with 25 μl of 400 mM phosphate buffer, pH 6.7, 5 μl of 2 M NaCl, and 25 μl of Milli Q water, and then preincubated at 37° C. for 5 min. The reactions were started by mixing the substrate solutions and the enzyme solutions. Increases of fluorescent strength were measured by FL600 Microplate Fluorescence Reader with 360 nm excitation and 460 nm emission filters at 37° C. for 30 min.
Regarding “Suc(OMe)-AAPV-MCA ({Suc(OMe)}-AAPV-{AMC}) [synthetic substrate purchased from Peptide Institute Co., Osaka]”, the “Substrate specificity (relative activity on substrate)” value came to 0.2%.

Regarding “Glt-AAF-MCA (Glt-Ala-Ala-Phe-{AMC}) [synthetic substrate purchased from Peptide Institute Co., Osaka]”, the “Substrate specificity (relative activity on substrate)” value is listed as 1.6%.

Take “Z-LLE-MCA ({code Z}-Leu-Leu-Glu-{AMC}; reading uncertain; also: printed as Z-LLE-MCA) [synthetic substrate purchased from Peptide Institute Co., Osaka]”: the “Substrate specificity (relative activity on substrate)” value came to 0.1%.

For “Suc-LLVY-MCA (Suc-LLVY-{AMC}) [synthetic substrate purchased from Peptide Institute Co., Osaka]”, the “Substrate specificity (relative activity on substrate)” value is 100.0%.

Consider “Boc-FSR-MCA (Boc-Phe-Ser-Arg-{AMC}) [synthetic substrate purchased from Peptide Institute Co., Osaka]”, for which the “Substrate specificity (relative activity on substrate)” value worked out at 0.3%.

Still in this assay, the particulars now being: five synthetic substrates compared, pH 6.7, 37° C.
Turning to “Suc-LLVY-MCA (Suc-LLVY-{AMC}) [synthetic substrate purchased from Peptide Institute Co., Osaka]”, the “substrate ranking (in words)” value was “best substrate”.

Another assay concerns 19 kDa protease. As to the kind of experiment: Effects of inhibitors on the 19 kDa protease (Suc-LLVY-MCA hydrolysis). The note with it: substrate 0.04 mM Suc-LLVY-MCA, KPB pH 6.7, 37° C.; 10 μl inhibitor stock (10 mM AEBSF, ZnSO4, EDTA; leupeptin 4.5 mg/10 ml and pepstatin A 3 mg/10 ml in DMSO diluted 10 times). The assay is classed as biochemical, Aspergillus niger. The method, then: as §1
4-(2-aminoethyl)-benzenesulfonyl fluoride (AEBSF), leupeptin, pepstatin A, ZnSO4, and EDTA were purchased from Wako Chemical Co., Osaka. The inhibitors were 4.5 mg/10 ml leupeptin in DMSO diluted 10 times by Milli Q water, 3 mg/10 ml pepstatin A in DMSO diluted 10 times by Milli-Q water, 10 mM AEBSF, 10 mM ZnSO4, and 10 mM EDTA. The substrate was 0.04 mM Suc-LLVY-MCA. Enzyme solution contains 5 μl of pooled 19 kDa protease fraction, 10 μl of inhibitors, 25 μl of 400 mM KPB, pH 6.7, and 35 μl of Milli-Q water. The substrate solution and the enzyme solutions were preincubated separately at 37° C. for 5 min. The activities were measured as described above.
`CC(C)CC(=O)N[C@H](C(=O)N[C@H](C(=O)N[C@@H](CC(C)C)[C@@H](O)CC(=O)N[C@@H](C)C(=O)N[C@@H](CC(C)C)[C@@H](O)CC(=O)O)C(C)C)C(C)C` [Pepstatin, pepstatin A] (Isovaleryl-VV[Sta]A[Sta]-OH): the “residual activity (%)” value came to 91%.

Consider `CC(=O)N[C@@H](CC(C)C)C(=O)N[C@@H](CC(C)C)C(=O)N[C@H](C=O)CCCNC(=N)N` [Leupeptin, leupeptin], for which the “residual activity (%)” value was determined as 89%.

On to `O=S(=O)([O-])[O-].[Zn+2]` [ZnSO4], for which the “residual activity (%)” value is on record as 99%.

With `NCCc1ccc(S(=O)(=O)F)cc1` [AEBSF, 4-(2-aminoethyl)-benzenesulfonyl fluoride], the “residual activity (%)” value turned out to be 100%.

With `O=C(O)CN(CCN(CC(=O)O)CC(=O)O)CC(=O)O` [EDTA], the “residual activity (%)” value is 101%.

System in another assay: not listed separately
As to the kind of experiment: pH profile of the 19 kDa protease. The note with it: phosphate buffer pH 6, 7, 8 and diethanolamine buffer pH 8, 9, 10; 0.04 mM Suc-LLVY-MCA. The assay is classed as biochemical, Aspergillus niger. The method, then:
as §1
Phosphate buffer pH6, 7, 8, and Diethanolamine buffer pH 8, 9, 10 were used. The substrate solution was 0.04 mM Suc-LLVY-MCA. The enzyme solution contains 5 μl of 19 kDa protease, 25 μl of buffer, 5 μl of 2 M NaCl and 40 μl of Milli Q water. Assay was performed as described before. The 19 kDa protease is an alkaline protease with the pH optimum 8-9.
In the case of B1, the pH optimum is reported as 8-9.

The values above are taken from patent publication US8945879B2, “Methods for recombinant expression of a polypeptide comprising a carbohydrate binding module using a host cell having reduced expression of a protease” (priority 2007, dated 2015).
